Test results: PubChem BioAssay AID2060887 (Molecular Pharmacology Branch, DTP, NCI, 2025)
One block for each molecule: values may come before it.

Tested on: 782815-120-R-J1-PDC complex spheroid viability
Experiment: Anticancer human tumor 782815-120-R-J1-PDC patient-derived colon adenocarcinoma cell line growth inhibition [RAS]
Conditions: for viability, T/C: stronger effect = lower value
In short: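 Agents were tested in combination matrices in half-log decrements from a top concentration at or near clinical Cmax (10 microM if undetermined). Targets were multi-cell spheroids of tumour lines plus HUVEC and MSC stromal cells.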
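Note: spheroids exposed to compounds for 7 days before reading.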
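Throughout, for viability, T/C: 100% = DMSO vehicle control viability.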

IC50 (curve of compound): 60.1 nM [middle of 4 runs]
SMILES: Nc1ccn(C2OC(CO)C(O)C2(F)F)c(=O)n1 (configuration not stated)
viability, T/C (compound 0.00316 µM): 91.4% [middle of 4 runs]
viability, T/C (compound 0.01 µM): 71.8% [middle of 4 runs]
viability, T/C (compound 0.1 µM): 40.8% [middle of 4 runs]
viability, T/C (compound 0.316 µM): 27% [middle of 4 runs]
viability, T/C (compound 1 µM): 25.6% [middle of 4 runs]

IC50 (curve of first compound, second compound 0.000949 µM): > 1 µM
IC50 (curve of first compound, second compound 0.003 µM): > 1 µM
IC50 (curve of first compound, second compound 0.00949 µM): < 0.00316 µM
IC50 (curve of first compound, second compound 0.03 µM): < 0.00316 µM
IC50 (curve of first compound, second compound 0.0949 µM): < 0.00316 µM
IC50 (curve of first compound, second compound 0.3 µM): < 0.00316 µM
SMILES: CCN1CCN(Cc2ccc(Nc3ncc(F)c(-c4cc(F)c5nc(C)n(C(C)C)c5c4)n3)nc2)CC1 + CCn1c(-c2cc(N3CCN(C)CC3)cnc2C(C)OC)c2c3cc(ccc31)-c1csc(n1)CC(NC(=O)C1CC1C)C(=O)N1CCCC(N1)C(=O)OCC(C)(C)C2
viability, T/C (second compound 0.000949 µM, first compound 0.00316 µM): 75.8%
viability, T/C (second compound 0.000949 µM, first compound 0.01 µM): 88%
viability, T/C (second compound 0.000949 µM, first compound 0.0316 µM): 92.3%
viability, T/C (second compound 0.000949 µM, first compound 0.1 µM): 84.9%
viability, T/C (second compound 0.000949 µM, first compound 0.316 µM): 94.6%
viability, T/C (second compound 0.000949 µM, first compound 1 µM): 114%
viability, T/C (second compound 0.003 µM, first compound 0.00316 µM): 58.6%
viability, T/C (second compound 0.003 µM, first compound 0.01 µM): 59.5%
viability, T/C (second compound 0.003 µM, first compound 0.0316 µM): 57.9%
viability, T/C (second compound 0.003 µM, first compound 0.1 µM): 59.7%
viability, T/C (second compound 0.003 µM, first compound 0.316 µM): 62.6%
viability, T/C (second compound 0.003 µM, first compound 1 µM): 64%
viability, T/C (second compound 0.00949 µM, first compound 0.00316 µM): 34.3%
viability, T/C (second compound 0.00949 µM, first compound 0.01 µM): 36.4%
viability, T/C (second compound 0.00949 µM, first compound 0.0316 µM): 34.4%
viability, T/C (second compound 0.00949 µM, first compound 0.1 µM): 39.4%
viability, T/C (second compound 0.00949 µM, first compound 0.316 µM): 34.8%
viability, T/C (second compound 0.00949 µM, first compound 1 µM): 32.5%
viability, T/C (second compound 0.03 µM, first compound 0.00316 µM): 20.2%
viability, T/C (second compound 0.03 µM, first compound 0.01 µM): 21.9%
viability, T/C (second compound 0.03 µM, first compound 0.0316 µM): 18.5%
viability, T/C (second compound 0.03 µM, first compound 0.1 µM): 18%
viability, T/C (second compound 0.03 µM, first compound 0.316 µM): 20.3%
viability, T/C (second compound 0.03 µM, first compound 1 µM): 20.8%
viability, T/C (second compound 0.0949 µM, first compound 0.00316 µM): 15.2%
viability, T/C (second compound 0.0949 µM, first compound 0.01 µM): 15.7%
viability, T/C (second compound 0.0949 µM, first compound 0.0316 µM): 14.5%
viability, T/C (second compound 0.0949 µM, first compound 0.1 µM): 17%
viability, T/C (second compound 0.0949 µM, first compound 0.316 µM): 19.3%
viability, T/C (second compound 0.0949 µM, first compound 1 µM): 17.1%
viability, T/C (second compound 0.3 µM, first compound 0.00316 µM): 15.6%
viability, T/C (second compound 0.3 µM, first compound 0.01 µM): 14.8%
viability, T/C (second compound 0.3 µM, first compound 0.0316 µM): 13.6%
viability, T/C (second compound 0.3 µM, first compound 0.1 µM): 13.3%
viability, T/C (second compound 0.3 µM, first compound 0.316 µM): 13.2%
viability, T/C (second compound 0.3 µM, first compound 1 µM): 18.2%

IC50 (curve of first compound, second compound 0.0316 µM): > 10 µM
IC50 (curve of first compound, second compound 0.1 µM): > 10 µM
IC50 (curve of first compound, second compound 0.316 µM): > 10 µM
IC50 (curve of first compound, second compound 1 µM): > 10 µM
IC50 (curve of first compound, second compound 3.16 µM): > 10 µM
IC50 (curve of first compound, second compound 10 µM): > 10 µM
SMILES: CC(Nc1ccc2c(c1)OCCn1cc(N3C(=O)OCC3C(F)F)nc1-2)C(N)=O (configuration not stated) + C#Cc1c(F)ccc2cc(O)cc(-c3ncc4c(N5CC6CCC(C5)N6)nc(OCC56CCCN5CC(F)C6)nc4c3F)c12
viability, T/C (second compound 0.0316 µM, first compound 0.0316 µM): 94.1%
viability, T/C (second compound 0.0316 µM, first compound 0.1 µM): 98.6%
viability, T/C (second compound 0.0316 µM, first compound 0.316 µM): 99.9%
viability, T/C (second compound 0.0316 µM, first compound 1 µM): 89.7%
viability, T/C (second compound 0.0316 µM, first compound 3.16 µM): 96.6%
viability, T/C (second compound 0.0316 µM, first compound 10 µM): 91.8%
viability, T/C (second compound 0.1 µM, first compound 0.0316 µM): 95.7%
viability, T/C (second compound 0.1 µM, first compound 0.1 µM): 102%
viability, T/C (second compound 0.1 µM, first compound 0.316 µM): 92.9%
viability, T/C (second compound 0.1 µM, first compound 1 µM): 90%
viability, T/C (second compound 0.1 µM, first compound 3.16 µM): 100%
viability, T/C (second compound 0.1 µM, first compound 10 µM): 94.1%
viability, T/C (second compound 0.316 µM, first compound 0.0316 µM): 99%
viability, T/C (second compound 0.316 µM, first compound 0.1 µM): 99.2%
viability, T/C (second compound 0.316 µM, first compound 0.316 µM): 87.9%
viability, T/C (second compound 0.316 µM, first compound 1 µM): 99.8%
viability, T/C (second compound 0.316 µM, first compound 3.16 µM): 101%
viability, T/C (second compound 0.316 µM, first compound 10 µM): 94.6%
viability, T/C (second compound 1 µM, first compound 0.0316 µM): 106%
viability, T/C (second compound 1 µM, first compound 0.1 µM): 101%
viability, T/C (second compound 1 µM, first compound 0.316 µM): 89%
viability, T/C (second compound 1 µM, first compound 1 µM): 97.2%
viability, T/C (second compound 1 µM, first compound 3.16 µM): 87.7%
viability, T/C (second compound 1 µM, first compound 10 µM): 103%
viability, T/C (second compound 3.16 µM, first compound 0.0316 µM): 111%
viability, T/C (second compound 3.16 µM, first compound 0.1 µM): 92.4%
viability, T/C (second compound 3.16 µM, first compound 0.316 µM): 97.8%
viability, T/C (second compound 3.16 µM, first compound 1 µM): 87.4%
viability, T/C (second compound 3.16 µM, first compound 3.16 µM): 97.5%
viability, T/C (second compound 3.16 µM, first compound 10 µM): 95.4%
viability, T/C (second compound 10 µM, first compound 0.0316 µM): 102%
viability, T/C (second compound 10 µM, first compound 0.1 µM): 95.9%
viability, T/C (second compound 10 µM, first compound 0.316 µM): 79%
viability, T/C (second compound 10 µM, first compound 1 µM): 92.6%
viability, T/C (second compound 10 µM, first compound 3.16 µM): 89.1%
viability, T/C (second compound 10 µM, first compound 10 µM): 81.2%

IC50 (curve of compound): 4.02 nM [middle of 4 runs]
SMILES: CCc1c2c(nc3ccc(O)cc13)-c1cc3c(c(=O)n1C2)COC(=O)[C@]3(O)CC
viability, T/C (compound 0.000949 µM): 100% [middle of 4 runs]
viability, T/C (compound 0.003 µM): 59.1% [middle of 4 runs]
viability, T/C (compound 0.00949 µM): 20.2% [middle of 4 runs]
viability, T/C (compound 0.03 µM): 9.92% [middle of 4 runs]
viability, T/C (compound 0.0949 µM): 3.66% [middle of 4 runs]
viability, T/C (compound 0.3 µM): 1.71% [middle of 4 runs]
